Laboratory results published in US20060142395A1, “Modulation of intracellular calcium signaling by N-acylethanolamines” (University of North Texas Health Science Center, priority 2003, published 2006).
pEC50: −log10 of the molar value. Where two headings read alike, the source gives them in different places.

Legend:
type 2 RyR = biological target: T1, type 2 RyR (Mus musculus, UniProt E9Q401); assay: Planar lipid bilayer single channel recording of RyR2; assay type: biochemical
T1 construct: First, type 2 RyR were isolated from mouse; from tissue; host or cells: mouse
Protocol: NAEs differentially regulate the activity of ICCs. First, type 2 RyR were isolated from mouse. Briefly, single channel activity was examined using the Planar Lipid Bilayer Membrane technique. […] Channel activity was initiated by cytosolic Ca^2+ concentrations of 10 nM and higher.
(§1) Next, the effect of NAE 12:0 on mouse RyRs was determined. NAE 12:0 dose-dependently and isoform-specifically regulated the function of RyRs and represent the first pharmacological tool to differentially manipulate individual intracellular calcium channel isoforms (FIG. 5). […] Measured at sub-maximally activating Ca^2+ concentrations (RyR type I: pCa 6; RyR type II: pCa 6.5) 500 nM NAE 12:0 increased RyR type I activity by 42% whereas the same concentration decreased RyR type II activity by 64% (FIG. 5).
Planar lipid bilayer single channel electrophysiology. ER vesicles or artificial liposomes containing ICCs may be incorporated into planar lipid bilayers and channel activity may be recorded electrophysiologically with the planar lipid bilayer being equivalent to the plasma membrane patch of patch clamp electrophysiology. Lipid bilayer membranes may be formed in a hole in a Teflon partition, which separates two buffer filled compartments (phosphatidylethanolamine and phosphatidylserine, 3:1 w/w, dissolved in decane, 40 mg lipid per ml, Avanti Polar Lipids, Alabaster, Ala.). Vesicles containing pc-2 may be added to one compartment (corresponding to the cytosolic compartment) and fuse with the bilayer leaving the channels contained in the vesicle as the only electrical connection between the two compartments. The buffer on the cytosolic side of the channel is a 250 mM HEPES-Tris solution, pH 7.35 and a 250 mM HEPES, 55 mM Ba(OH)2 (or defined concentration of other current carrier, such as Ca(OH)2 or Mg(OH)2) solution, pH 7.35 constitutes the buffer on the trans side of the bilayer. Proper insertion of the ICCs may be monitored by appropriate stimulation of channels on the cytosolic side (IP3R: Ca^2+, IP3; RyR: Ca^2+, caffeine, cADPR; pc-2: Ca^2+, activating membrane potential; 77, 83, 115-117, 141). Improperly inserted channels that are less than 5% under the described conditions will not be included in the analysis. Channel insertion and activity may be recorded with Ag/AgCl electrodes contacting the buffer filled compartments via KCl containing agarose bridges. Activity of a single channel protein can be monitored because it passes enough current to be measured electronically using an amplifier. Altering the divalent cation species on the luminal side of the channel that carries the current will test ion selectivity. Single channel conductance, voltage-dependence, dwell times and dependence on intracellular free Ca^2+ concentrations may be determined using standard methods in the presence of blockers of other ICCs (IP3R: no IP3, heparin; RyR: ryanodine, ruthenium red; pc-2: lack of activating membrane potential; 77, 83). Modulating reagents may be added to the cytosolic side of the protein using a perfusion system (77, 83).

[1] = biological target: T2, type 2 IP3R from nuclei of HepG2 cells (Homo sapiens, UniProt Q14571); assay: Planar lipid bilayer single channel recording of native type 2 IP3R; assay type: biochemical
T2 construct: biophysical properties of native type 2 IP3R isolated from cells; endogenous in cells; host or cells: HepG2 cells, nuclei / nuclear envelope membranes
Excerpt: Electrophysiological recording of ICCs is a well established technique used to measure the effects on calcium levels based on external stimuli (83, 115-117). The planar lipid bilayer technique has been used by the principal investigator to determine the function of ICCs in neurons and non-neuronal cells. The inventors isolated type 2 IP3R from nuclei of HepG2 cells using the same techniques described herein. These studies represent the first determination of the biophysical properties of native type 2 IP3R isolated from cells. All previous studies on type 2 IP3R used artificially expressed type 2 IP3R of cells that had been transfected with the respective cDNA (118-119). Single channel activity was examined using the Planar Lipid Bilayer Membrane technique. […] The lack of feedback inhibition by high concentrations of Ca^2+ is again similar to what has been observed in the recombinant type 2 IP3R (118, 121). […] Both the increased sensitivity to IP3 and the lack of Ca2+-induced inactivation distinguishes the type 2 IP3R from the well-characterized type 1 IP3R. By isolating the receptor with its associated proteins from a functional cellular environment, properties influenced by accessory proteins can be readily assessed with single channel electrophysiology. Data obtained from these experiments analyzing the single channel characteristics of ICCs will provide the biophysical information necessary to correlate intracellular signaling data with function in live cells and in vivo, as shown hereinbelow.
Planar lipid bilayer single channel electrophysiology. ER vesicles or artificial liposomes containing ICCs may be incorporated into planar lipid bilayers and channel activity may be recorded electrophysiologically with the planar lipid bilayer being equivalent to the plasma membrane patch of patch clamp electrophysiology. […] Proper insertion of the ICCs may be monitored by appropriate stimulation of channels on the cytosolic side (IP3R: Ca^2+, IP3; RyR: Ca^2+, caffeine, cADPR; pc-2: Ca^2+, activating membrane potential; 77, 83, 115-117, 141). […] Channel insertion and activity may be recorded with Ag/AgCl electrodes contacting the buffer filled compartments via KCl containing agarose bridges. Activity of a single channel protein can be monitored because it passes enough current to be measured electronically using an amplifier. […] Single channel conductance, voltage-dependence, dwell times and dependence on intracellular free Ca^2+ concentrations may be determined using standard methods in the presence of blockers of other ICCs (IP3R: no IP3, heparin; RyR: ryanodine, ruthenium red; pc-2: lack of activating membrane potential; 77, 83). […]

RyR type I = biological target: T3, RyR type I (Mus musculus, UniProt E9PZQ0); assay: Planar lipid bilayer single channel recording of RyR type I; assay type: biochemical
T3 construct: from tissue; host or cells: mouse
Protocol: as §1
Planar lipid bilayer single channel electrophysiology. ER vesicles or artificial liposomes containing ICCs may be incorporated into planar lipid bilayers and channel activity may be recorded electrophysiologically with the planar lipid bilayer being equivalent to the plasma membrane patch of patch clamp electrophysiology. […] Proper insertion of the ICCs may be monitored by appropriate stimulation of channels on the cytosolic side (IP3R: Ca^2+, IP3; RyR: Ca^2+, caffeine, cADPR; pc-2: Ca^2+, activating membrane potential; 77, 83, 115-117, 141). […] Channel insertion and activity may be recorded with Ag/AgCl electrodes contacting the buffer filled compartments via KCl containing agarose bridges. Activity of a single channel protein can be monitored because it passes enough current to be measured electronically using an amplifier. […]

HT22 neurons = assay: Neuroprotection from L-glutamate toxicity (oxidative stress); assay type: cell-based
Protocol: NAE protects neurons in vitro from oxidative stress and glutamate toxicity. Next, the neuroprotective potential effects of NAEs were determined by culturing an immortalized hippocampal neuron cell line, HT 22, a model system used extensively. […] The mechanism of neurotoxicity is depletion of intracellular glutathione stores by inhibition of the cysteine transport and subsequently of glutathione synthesis.
The following assays may be used to assess neuronal viability and different stages of cell death. Optical assessment._Changes in cell morphology (apoptotic and necrotic morphology) and cell number may be used as an initial assessment of neurotoxicity and neuroprotection (see preliminary results in FIG. 8) using bright field differential interference contrast microscopy (Olympus IX-70, Olympus Corp., Japan; SimplePCI, C-imaging systems, Compix, Inc.).

IP3R = assay: Western blot of phosphothreonine on IP3R in retina tissue in vitro; assay type: cell-based, mouse; conditions: 100 nM, 60 min, vs vehicle control
Excerpt: Chemo-luminescence-enhanced Western blotting as a sensitive method to evaluate changes in intracellular signaling. A crucial factor in the determination of signaling proteins mediating neuroprotection is the specificity of reagents used for immunolocalization. As disclosed herein, a number of antibodies identified and characterized (Tables 1 and 2) and the conditions that allow full identification of signaling proteins mediating NAE responses through NAEs in neurons provided. Using the sensitive chemo-luminescence-enhanced Western blotting technique, changes were detected in signaling protein composition. Furthermore, immunodetection methods allow an analysis of the changes in the phosphorylation status of signaling proteins in experiments assessing the neuroprotective functions of NAEs. The high temporal and quantitative sensitivity of the assay system may be especially useful in our in vitro and in vivo model systems of neurotoxicity which will measure small but functionally relevant initial changes associated with neuronal damage. In additional studies, the effects of lipophilic hormones on the phosphorylation status of intracellular calcium channels was determined. […]
The high temporal and quantitative sensitivity of the assay system may be especially useful in our model systems which will produce functionally relevant initial changes associated with neuronal damage.

[2] = tested on: primary cultures of hippocampal neurons; assay: Ca2+ imaging of L-glutamate induced Ca2+ transients (fluo-3); assay type: cell-based; conditions: 100 μM, 30 min preincubation, 100 μM L-Glutamate stimulus
Protocol: Both single wavelength (high sensitivity) and ratiometric (quantitative analysis) fluorescent Ca^2+ indicator dyes may be used. Various parameters may be studies, such as substrate adherence, dye concentration, and culture conditions, have been optimized for measuring acutely isolated neurons as well as neuronal cell lines, as will be known to the skilled artisan. NAEs influence intracellular Ca2+ homeostasis. Next, studies were conducted using primary cultures of hippocampal neurons to determine the effects of NAEs on intracellular Ca^2+ signaling. In these studies, the influence of a bath-based application of NAE 16:0 on intracellular Ca^2+ signaling of primary hippocampal neurons was analyzed. Hippocampal neurons like most other CNS neurons express RyR isoform 2. Some neurons also express RyR3 and RyR1 is found predominantly in glial cells.
FIGS. 6A to 6E demonsatrate the effect of NAEs on primary isolated and cultured hippocampal neurons were exposed to 100 μM L-Glutamate. FIG. 6A show the DIC image of a neuron and the fluorescence of the calcium indicator dye fluo-3 in the same cell at resting levels (FIG. 6B) and after L-Glutamate stimulation (FIG. 6C; scale bar: 25 μm). […] When the hippocampal neurons were stimulated with L-glutamate, this triggers an influx of extracellular Ca^2+ and a prolonged release of Ca^2+ from intracellular stores (FIG. 6D). […]

[3] = tested on: ovariectomized (OVX) rats; assay: Middle cerebral artery occlusion, cerebral ischemia-reperfusion injury; assay type: in vivo
Akt = conditions: primary hippocampal neurons, 100 μM, 60 min, total Akt unchanged
Protocol: Western Blot Analysis. Cells may be lysed in lysis buffer (50 mM Tris (pH 7.4), 150 mM NaCl, 10% glycerol, 1 mM EGTA, 1 mM Na3VO4, 5 μM ZnCl2, 100 mM NaF, 1% Triton X-100, 10 μg/ml aprotinin, 1 μg/ml leupeptin, and 1 mM PMSF) and snap frozen in liquid nitrogen. Following homogenization, by trituration of the cells through a 22 Ga needle, and centrifugation at 100,000×g for 15 min at 4° C., resulting supernatants (lysates) are normalized for protein content (Lowry Assay, Biorad DC Protein Assay Kit). 25 mg of protein from each sample will then be separated on a 10% polyacrylamide gel (SDS/PAGE) followed by transfer onto PVDF membranes (0.22 mm pore size, Biorad, Hercules, Calif.). The membranes are then blocked overnight with 3% BSA (Fraction V; Sigma) or in Tris-buffered saline containing 0.2% Tween-20 (TBS-T) and probed with the appropriate antibody. […] For Akt phosphorylation, rabbit anti-phosphoAkt (Ser473) or rabbit anti-phosphoAkt(Thr308) (Cell Signaling Technology); for Akt protein assessment, rabbit anti-Akt (New England Biolabs). Binding of the primary antibody to the membrane may be detected using a secondary antibody (either goat anti-rabbit or goat anti-mouse), conjugated to horseradish peroxidase (HRP; 1:40,000, Pierce, Rockford, Ill.) and visualized using enzyme-linked chemiluminescence (ECL; Amersham, Arlington Heights, Ill.). […]

type 1 IP3R = type 1 IP3R (Homo sapiens, UniProt Q14643); conditions: read-out: half maximal activation by IP3; cited from earlier work
recombinant type 2 IP3R = recombinant type 2 IP3R (Homo sapiens, UniProt Q14571); conditions: read-out: EC50-value for IP3; cited from earlier work

T1 sequence (E9Q401 whole entry): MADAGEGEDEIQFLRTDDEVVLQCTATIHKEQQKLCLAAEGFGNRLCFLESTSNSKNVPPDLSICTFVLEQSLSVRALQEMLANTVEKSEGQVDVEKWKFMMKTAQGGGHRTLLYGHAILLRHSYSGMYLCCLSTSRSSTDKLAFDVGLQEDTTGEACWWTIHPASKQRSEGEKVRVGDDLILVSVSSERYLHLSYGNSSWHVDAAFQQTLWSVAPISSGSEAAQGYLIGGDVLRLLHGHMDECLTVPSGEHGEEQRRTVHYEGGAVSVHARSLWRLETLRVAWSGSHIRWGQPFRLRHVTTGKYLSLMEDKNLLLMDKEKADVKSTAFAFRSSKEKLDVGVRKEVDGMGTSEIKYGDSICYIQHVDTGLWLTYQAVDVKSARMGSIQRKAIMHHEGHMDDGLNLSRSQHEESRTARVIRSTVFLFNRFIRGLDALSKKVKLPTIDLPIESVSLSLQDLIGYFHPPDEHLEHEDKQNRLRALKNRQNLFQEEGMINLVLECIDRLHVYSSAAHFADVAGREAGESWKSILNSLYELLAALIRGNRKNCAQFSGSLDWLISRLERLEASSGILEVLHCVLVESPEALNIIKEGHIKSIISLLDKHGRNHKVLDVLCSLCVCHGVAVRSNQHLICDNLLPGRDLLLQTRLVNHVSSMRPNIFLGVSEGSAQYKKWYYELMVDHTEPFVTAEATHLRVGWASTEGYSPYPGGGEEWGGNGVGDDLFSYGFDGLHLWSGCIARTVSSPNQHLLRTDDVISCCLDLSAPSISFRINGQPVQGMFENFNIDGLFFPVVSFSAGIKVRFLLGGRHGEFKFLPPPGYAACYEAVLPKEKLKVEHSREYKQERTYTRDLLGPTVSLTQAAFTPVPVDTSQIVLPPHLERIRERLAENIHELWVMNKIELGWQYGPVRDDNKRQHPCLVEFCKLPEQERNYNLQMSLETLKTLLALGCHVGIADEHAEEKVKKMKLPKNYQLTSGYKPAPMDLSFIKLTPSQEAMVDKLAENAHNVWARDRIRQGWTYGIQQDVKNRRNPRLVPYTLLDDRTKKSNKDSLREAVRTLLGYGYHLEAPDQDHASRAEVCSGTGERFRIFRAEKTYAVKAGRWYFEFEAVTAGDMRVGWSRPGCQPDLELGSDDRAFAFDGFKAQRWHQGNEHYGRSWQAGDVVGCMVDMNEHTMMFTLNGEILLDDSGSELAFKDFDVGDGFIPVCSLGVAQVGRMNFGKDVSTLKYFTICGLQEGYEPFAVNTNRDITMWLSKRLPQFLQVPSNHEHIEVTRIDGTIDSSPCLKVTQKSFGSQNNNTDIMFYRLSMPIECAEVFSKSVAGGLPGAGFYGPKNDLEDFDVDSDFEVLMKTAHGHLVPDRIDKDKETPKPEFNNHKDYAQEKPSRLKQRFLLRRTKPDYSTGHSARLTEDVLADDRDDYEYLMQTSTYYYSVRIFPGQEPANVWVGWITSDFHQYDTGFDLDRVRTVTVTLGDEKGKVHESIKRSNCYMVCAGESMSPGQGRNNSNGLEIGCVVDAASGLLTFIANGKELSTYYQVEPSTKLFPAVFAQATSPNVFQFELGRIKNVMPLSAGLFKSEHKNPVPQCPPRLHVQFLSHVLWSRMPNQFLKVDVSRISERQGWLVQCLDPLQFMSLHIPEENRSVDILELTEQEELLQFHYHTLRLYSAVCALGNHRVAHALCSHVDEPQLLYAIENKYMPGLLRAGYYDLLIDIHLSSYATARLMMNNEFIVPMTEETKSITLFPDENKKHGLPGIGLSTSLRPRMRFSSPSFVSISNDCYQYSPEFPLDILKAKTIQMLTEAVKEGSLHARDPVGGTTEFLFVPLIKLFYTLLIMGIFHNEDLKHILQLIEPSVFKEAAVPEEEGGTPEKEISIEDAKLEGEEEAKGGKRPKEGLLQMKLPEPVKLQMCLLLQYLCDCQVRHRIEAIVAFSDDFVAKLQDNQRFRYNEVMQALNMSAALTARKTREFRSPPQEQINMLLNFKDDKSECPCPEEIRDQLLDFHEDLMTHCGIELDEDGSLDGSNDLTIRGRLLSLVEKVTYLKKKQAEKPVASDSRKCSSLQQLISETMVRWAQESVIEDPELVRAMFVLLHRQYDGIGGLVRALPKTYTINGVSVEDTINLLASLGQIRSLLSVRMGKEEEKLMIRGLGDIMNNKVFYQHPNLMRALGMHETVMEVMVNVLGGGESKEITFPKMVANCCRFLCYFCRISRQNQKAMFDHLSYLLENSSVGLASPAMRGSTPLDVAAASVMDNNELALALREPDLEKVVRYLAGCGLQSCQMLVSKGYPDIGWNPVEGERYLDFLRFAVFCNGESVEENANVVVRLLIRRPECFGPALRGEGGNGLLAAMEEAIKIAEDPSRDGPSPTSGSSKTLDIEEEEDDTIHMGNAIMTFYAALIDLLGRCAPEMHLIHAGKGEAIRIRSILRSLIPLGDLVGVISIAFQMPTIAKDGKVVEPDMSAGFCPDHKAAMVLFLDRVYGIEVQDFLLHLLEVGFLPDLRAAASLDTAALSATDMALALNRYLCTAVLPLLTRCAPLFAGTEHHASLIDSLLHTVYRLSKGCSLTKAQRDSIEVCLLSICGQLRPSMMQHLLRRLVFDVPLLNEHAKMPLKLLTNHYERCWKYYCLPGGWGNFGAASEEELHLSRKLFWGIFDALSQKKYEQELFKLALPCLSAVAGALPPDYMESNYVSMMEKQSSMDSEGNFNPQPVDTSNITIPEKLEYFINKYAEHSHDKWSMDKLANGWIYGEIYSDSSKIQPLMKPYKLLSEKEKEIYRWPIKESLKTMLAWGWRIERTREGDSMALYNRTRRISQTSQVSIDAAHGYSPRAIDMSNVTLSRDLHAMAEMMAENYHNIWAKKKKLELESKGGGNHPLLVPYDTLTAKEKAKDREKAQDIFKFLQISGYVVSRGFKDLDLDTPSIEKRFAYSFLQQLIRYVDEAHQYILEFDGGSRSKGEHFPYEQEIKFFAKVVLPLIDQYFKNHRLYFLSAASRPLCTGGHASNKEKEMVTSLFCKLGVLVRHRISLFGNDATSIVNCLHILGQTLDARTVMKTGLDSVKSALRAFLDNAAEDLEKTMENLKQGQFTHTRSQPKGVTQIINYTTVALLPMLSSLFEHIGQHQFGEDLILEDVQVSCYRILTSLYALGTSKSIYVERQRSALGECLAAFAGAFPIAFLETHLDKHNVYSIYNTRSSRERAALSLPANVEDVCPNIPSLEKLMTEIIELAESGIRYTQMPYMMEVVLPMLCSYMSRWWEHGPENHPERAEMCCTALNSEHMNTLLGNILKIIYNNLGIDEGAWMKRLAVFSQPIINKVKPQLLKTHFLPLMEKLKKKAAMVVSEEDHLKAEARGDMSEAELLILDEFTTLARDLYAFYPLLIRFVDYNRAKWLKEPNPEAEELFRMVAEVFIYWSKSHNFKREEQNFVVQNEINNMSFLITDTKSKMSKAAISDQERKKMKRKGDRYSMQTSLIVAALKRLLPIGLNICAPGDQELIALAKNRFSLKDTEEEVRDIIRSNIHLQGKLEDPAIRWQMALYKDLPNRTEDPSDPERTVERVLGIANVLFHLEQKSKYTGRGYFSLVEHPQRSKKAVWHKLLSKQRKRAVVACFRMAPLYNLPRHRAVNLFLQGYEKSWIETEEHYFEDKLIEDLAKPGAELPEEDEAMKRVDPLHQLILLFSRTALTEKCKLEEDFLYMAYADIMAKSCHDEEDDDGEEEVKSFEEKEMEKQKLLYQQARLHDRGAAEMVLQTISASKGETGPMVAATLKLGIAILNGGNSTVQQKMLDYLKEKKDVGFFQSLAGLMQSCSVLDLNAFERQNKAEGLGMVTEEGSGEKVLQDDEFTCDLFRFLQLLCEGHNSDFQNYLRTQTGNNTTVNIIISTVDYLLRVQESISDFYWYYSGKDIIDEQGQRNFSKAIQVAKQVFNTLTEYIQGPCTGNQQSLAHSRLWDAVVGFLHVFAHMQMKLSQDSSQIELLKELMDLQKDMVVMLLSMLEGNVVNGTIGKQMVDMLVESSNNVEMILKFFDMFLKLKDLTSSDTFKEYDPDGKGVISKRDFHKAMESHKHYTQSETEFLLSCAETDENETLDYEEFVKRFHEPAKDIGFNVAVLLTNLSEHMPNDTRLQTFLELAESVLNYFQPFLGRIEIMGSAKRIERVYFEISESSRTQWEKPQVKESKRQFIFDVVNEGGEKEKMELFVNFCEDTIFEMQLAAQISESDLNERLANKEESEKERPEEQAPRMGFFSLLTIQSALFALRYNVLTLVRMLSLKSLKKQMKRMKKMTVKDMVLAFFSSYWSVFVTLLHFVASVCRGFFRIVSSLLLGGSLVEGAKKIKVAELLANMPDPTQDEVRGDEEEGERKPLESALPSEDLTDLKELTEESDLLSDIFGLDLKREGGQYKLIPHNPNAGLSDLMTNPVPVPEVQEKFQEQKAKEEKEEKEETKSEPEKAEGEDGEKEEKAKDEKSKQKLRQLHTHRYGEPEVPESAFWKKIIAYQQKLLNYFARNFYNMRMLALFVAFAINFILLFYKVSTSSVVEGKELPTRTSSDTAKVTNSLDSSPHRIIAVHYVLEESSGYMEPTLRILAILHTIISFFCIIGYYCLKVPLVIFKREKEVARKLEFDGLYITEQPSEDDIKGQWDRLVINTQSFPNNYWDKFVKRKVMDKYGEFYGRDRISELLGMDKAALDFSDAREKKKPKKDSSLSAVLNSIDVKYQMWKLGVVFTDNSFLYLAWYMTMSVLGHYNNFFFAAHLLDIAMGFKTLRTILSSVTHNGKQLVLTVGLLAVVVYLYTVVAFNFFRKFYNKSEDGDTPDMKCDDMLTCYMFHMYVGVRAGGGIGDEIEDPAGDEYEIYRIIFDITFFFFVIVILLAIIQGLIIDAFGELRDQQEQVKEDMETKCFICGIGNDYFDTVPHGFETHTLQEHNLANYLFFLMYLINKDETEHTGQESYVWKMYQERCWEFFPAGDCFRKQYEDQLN

## N.N.N.N.N.N.N.N.N.N.N.N.N.N.[Cl-].[Cl-].[Cl-].[Cl-].[Cl-].[Cl-].[O-2].[O-2].[Ru+3].[Ru+3].[Ru+4] [ruthenium red, reference compound]
Type 2 RyR; ruthenium red 20 μM
  block of channel activity: blocked

## calmodulin
[1]; excess amounts, preliminary experiments
  effect on lack of Ca2+ inhibition of the channel: did not change this behavior

## CCCCCCCCCCCC(=O)NCCO [NAE 12:0]
Type 2 RyR; 500 nM, pCa 6.5, n=3, FIG. 5
  decrease of RyR type II activity: 64%
Type 2 RyR; RyR 2
  change of single channel conductance and amplitude: Neither NAE 12:0 nor NAE 18:2 changed
RyR type I; 500 nM, pCa 6, n=3, FIG. 5
  increase of RyR type I activity: 42%
RyR type I; RyR 1
  change of single channel conductance and amplitude: Neither NAE 12:0 nor NAE 18:2 changed
HT22 neurons
  protection from L-glutamate toxicity: dose-dependently protects
HT22 neurons; HT-22 cells, even at high concentrations, no L-glutamate
  effect of NAE alone on neuronal viability: no effect
HT22 neurons; in the presence of the NAE
  number of dead cells after L-glutamate insult: significantly reduced

## CC(=O)[C@H]1CC[C@H]2[C@@H]3CCC4=CC(=O)CC[C@]4(C)[C@H]3CC[C@]12C [progesterone]
IP3R
  phosphothreonine immunoreactivity on the IP3R: increase

## heparin
[1]; heparin 50 μg/ml
  block of channel activity: blocked

## CCCCCCCCCCCCCCCC(=O)NCCO [NAE 16:0]
Type 2 RyR; 0.1 μM
  channel open frequency: reduced significantly
  channel open probability: reduction
  dwell time: reduced significantly
Type 2 RyR; higher, micromolar concentrations, FIG. 4
  channel activity at higher concentrations: almost complete block
Type 2 RyR; in presence of NAE 16:0
  single channel amplitude (not affected): 3.9±0.1 pA
  single channel conductance (not affected): 110±8 pS
Type 2 RyR; pCa 6, n=3, FIG. 4
  RyR2 channel activity: dose-dependently decreased
[2]
  amplitude of Ca2+ transients: significantly decreased
  duration of Ca2+ transients: significantly decreased
HT22 neurons
  effect of NAE alone on neuronal viability: no effect
HT22 neurons; FIG. 10 vs FIG. 9
  potency in neuroprotection, comparison: higher potency in neuroprotection than NAE 12:0
[3]; 10 mg/kg sc, 1 hr MCAO, 24 hr reperfusion, N=7/group, P<0.05 vs OVX
  protection of cerebral cortex and basal ganglia (infarct volume, TTC): protected
[3]; acute (sc 6 h prior and immediately before MCAO, 10 mg/kg) and chronic (1 day prior) regimen
  protection of CNS tissue from MCA occlusion-induced ischemic damage: effectively protected
Akt
  phosphorylated/active Akt: significant increase

## O=P(O)(O)O[C@@H]1[C@H](O)[C@H](O)[C@@H](OP(=O)(O)O)[C@H](OP(=O)(O)O)[C@H]1O [IP3, inositol 1,4,5-trisphosphate]
[1]
  cytosolic IP3 concentration that initiates channel activity: ≥ 10 nM
[1]; native channel, data not shown, read-out: half maximal activation, dependence on cytosolic IP3 concentration
  pEC50: 7.19
Type 1 IP3R
  pEC50: 6.30
Recombinant type 2 IP3R
  pEC50: 7.24
